Data reported in US4966900A, “Cephalosporin β-lactam compound and medicinal composition” (priority 1986, dated 1990).
In brackets after ≈: the same amount, converted by molar mass. Counter-ions that a name gives are not always drawn.

Assays:
Test in all cases: MIC
C. freundii 1U589 = details: Citrobacter freundii, 1U589
C. freundii 1R526 = details: Citrobacter freundii, 1R526
E. cloacae 908RN = details: Enterobacter cloacae
S. aureus Smith = details: Staphylococcus aureus, Table 5
P. aeruginosa 4au542 = details: Pseudomonas aeruginosa, 4AU542, P. aeruginosa 4au542; Table 5
C. freundii 1R524 = details: Citrobacter freundii, 1R524
P. aeruginosa 5D58-1 = details: Pseudomonas aeruginosa, 5D581, P. aeruginosa 5D58-1; Table 5
K. pneumoniae 4at521 = details: Klebsiella pneumoniae, 4AT521
P. cepacia OF189 = details: Burkholderia cepacia, OF189, P. cepacia OF189; Table 5
P. vulgaris GN7919 = details: Proteus vulgaris, GN7919
P. maltophilia OF247 = details: Stenotrophomonas maltophilia, Table 5
E. cloacae 5D63-2 = details: Enterobacter cloacae, 5D632
S. marcescens GN10857 = details: Serratia marcescens, GN10857, S. marcescens GN10857; Table 5
C. freundii GN7391 = details: Citrobacter freundii, GN7391, C. freundii GN7391
C. freundii 1R527 = details: Citrobacter freundii, 1R527
C. freundii 1U692 = details: Citrobacter freundii, 1U692
C. freundii 5D60-1 = details: Citrobacter freundii, 5D601
E. coli GN5482 = details: Escherichia coli, GN5482, E. coli GN5482; Table 5
P. aeruginosa GN10362 = details: Pseudomonas aeruginosa, GN10362
E. coli ML4707 = details: Escherichia coli, ML4707, E. coli ML4707; Table 5
E. cloacae 1V25 = details: Enterobacter cloacae
E. cloacae 5D52-2 = details: Enterobacter cloacae, 5D522
C. freundii 1R523 = details: Citrobacter freundii, 1R523
E. cloacae 1Y247 = format: cell-based; details: Enterobacter cloacae, Table 6, read-out: MIC
Experimental: (§1) The minimum inhibition concentrations (MIC) of the compounds obtained in the respective examples described above were measured according to the standard method of Japanese Chemotherapy Association.

S. aureus IAA498 = format: cell-based; details: Staphylococcus aureus, Table 5
Experimental: as §1

E. colacae GN7471 = details: Table 5

Row | Structure (SMILES) | MIC (C. freundii 1U589) | MIC (C. freundii 1R526) | MIC (E. cloacae 908RN; E. cloacae 908RN, Table 6) | MIC (E. cloacae 908RN; E. colacae 908RN, Table 5) | MIC (S. aureus Smith) | MIC (P. aeruginosa 4au542) | MIC (C. freundii 1R524) | MIC (P. aeruginosa 5D58-1) | MIC (K. pneumoniae 4at521) | MIC (P. cepacia OF189) | MIC (P. vulgaris GN7919) | MIC (P. maltophilia OF247) | MIC (E. cloacae 5D63-2) | MIC (S. marcescens GN10857) | MIC (C. freundii GN7391; Table 5) | MIC (C. freundii GN7391; Table 6) | MIC (C. freundii 1R527) | MIC (C. freundii 1U692) | MIC (C. freundii 5D60-1) | MIC (E. coli GN5482) | further results
1 | CC(C)(ON=C(C(=O)NC1C(=O)N2C(C(=O)O)=C(CSc3c4c(nc5ncnn35)CCC4)CSC12)c1csc(N)n1)C(=O)NNC(=O)c1ccc(O)c(O)c1 (stereo not drawn) [Example 36] | 0.39 µg/mL (≈ 0.482 µM) | 0.2 µg/mL (≈ 0.247 µM) | 12.5 µg/mL (≈ 15.4 µM) | 3.13 µg/mL (≈ 3.86 µM) | 6.25 µg/mL (≈ 7.72 µM) | 0.39 µg/mL (≈ 0.482 µM) | 0.2 µg/mL (≈ 0.247 µM) | 0.78 µg/mL (≈ 0.963 µM) | 0.012 µg/mL (≈ 0.0148 µM) | 0.012 µg/mL (≈ 0.0148 µM) | 0.78 µg/mL (≈ 0.963 µM) | 0.2 µg/mL (≈ 0.247 µM) | 0.39 µg/mL (≈ 0.482 µM) | 0.39 µg/mL (≈ 0.482 µM) | 3.13 µg/mL (≈ 3.86 µM) | 6.25 µg/mL (≈ 7.72 µM) | 0.2 µg/mL (≈ 0.247 µM) | 0.39 µg/mL (≈ 0.482 µM) | 1.56 µg/mL (≈ 1.93 µM) | 0.012 µg/mL (≈ 0.0148 µM) | MIC (P. aeruginosa GN10362): 0.2 µg/mL (≈ 0.247 µM); MIC (E. coli ML4707): 0.012 µg/mL (≈ 0.0148 µM); MIC (E. cloacae 1V25): 12.5 µg/mL (≈ 15.4 µM); MIC (E. cloacae 5D52-2): 0.2 µg/mL (≈ 0.247 µM); MIC (C. freundii 1R523): 0.2 µg/mL (≈ 0.247 µM); MIC (E. cloacae 1Y247): 12.5 µg/mL (≈ 15.4 µM); MIC (S. aureus IAA498): 12.5 µg/mL (≈ 15.4 µM); MIC (E. colacae GN7471): 3.13 µg/mL (≈ 3.86 µM)
2 | Cc1nc2nc(C(=O)O)nn2c(SCC2=C(C(=O)O)N3C(=O)C(NC(=O)C(=NOC(C)(C)C(=O)NNC(=O)c4ccc(O)c(O)c4)c4csc(N)n4)C3SC2)c1C (stereo not drawn) [Example 41, 7-{2-[2-Amino-1,3-thiazol 4-yl]-2-[1-(3-(3,4-dihydroxybenzoyl)carbazoyl)-1-methylethoxyimino]acetamide}-3-[(2-carboxy-5,6-dimethyl-s-triazolo[1,5-a]pyrimidin-7-yl)-thiomethyl]-3-cephem-4-carboxylic acid.hydrochloride] | 0.05 µg/mL | 0.025 µg/mL | 0.2 µg/mL | 0.2 µg/mL | 25 µg/mL | 0.2 µg/mL | 0.006 µg/mL | 0.39 µg/mL | < 0.006 µg/mL | < 0.006 µg/mL | 0.39 µg/mL | 0.1 µg/mL | 0.1 µg/mL | 0.1 µg/mL | 0.39 µg/mL | 0.39 µg/mL | 0.012 µg/mL | 0.05 µg/mL | 0.1 µg/mL | < 0.006 µg/mL | MIC (P. aeruginosa GN10362): 0.1 µg/mL; MIC (E. coli ML4707): < 0.006 µg/mL; MIC (E. cloacae 1V25): 1.56 µg/mL; MIC (E. cloacae 5D52-2): 0.05 µg/mL; MIC (C. freundii 1R523): 0.025 µg/mL; MIC (E. cloacae 1Y247): 0.39 µg/mL; MIC (S. aureus IAA498): 50 µg/mL; MIC (E. colacae GN7471): 0.39 µg/mL
3 | CC(C)(ON=C(C(=O)NC1C(=O)N2C(C(=O)O)=C(CSc3c4c(nc5nc(C(=O)O)nn35)CCC4)CSC12)c1csc(N)n1)C(=O)NNC(=O)c1ccc(O)c(O)c1 (stereo not drawn) [Example 33, 7-{2-[2-amino-1,3-thiazol-4-yl]-2-[1-(3-(3,4-dihydroxybenzoyl)carbazoyl)-1-methylethoxyimino]acetamide}-3-[(2-carboxy-6,7-dihydro-5H-cyclopenta[f]-s-triazolo[1,5-a]pyrimidin-8-yl)thiomethyl]-3-cephem-4-carboxylic acid.hydrochloride] | 0.05 µg/mL | 0.025 µg/mL | 0.2 µg/mL | 0.2 µg/mL | 25 µg/mL | 0.2 µg/mL | 0.025 µg/mL | 0.2 µg/mL | < 0.006 µg/mL | < 0.006 µg/mL | 0.2 µg/mL | 0.1 µg/mL | 0.1 µg/mL | 0.05 µg/mL | 0.39 µg/mL | 0.78 µg/mL | 0.025 µg/mL | 0.05 µg/mL | 0.2 µg/mL | < 0.006 µg/mL | MIC (P. aeruginosa GN10362): 0.05 µg/mL; MIC (E. coli ML4707): < 0.006 µg/mL; MIC (E. cloacae 1V25): 1.56 µg/mL; MIC (E. cloacae 5D52-2): 0.1 µg/mL; MIC (C. freundii 1R523): 0.05 µg/mL; MIC (E. cloacae 1Y247): 1.56 µg/mL; MIC (S. aureus IAA498): 25 µg/mL; MIC (E. colacae GN7471): 0.39 µg/mL
